In patent publication US6867211B2, “4-Pyridyl-and 2,4-pyrimidinyl-substituted pyrrole derivatives and their use in pharmacy” (Merckle GmbH, priority 2000, dated 2005):
pIC50: −log10 of the molar value.

What was measured:
[1] = molecular target: T1, cyclooxygenase-1 (Homo sapiens, UniProt P23219); experiment: In vitro test system for determining the inhibition of cyclooxygenase-1 (PGE2 from human platelets, calcium ionophore, ELISA); assay type: cell-based; conditions: for COX-1 percentage inhibition: at 10 μmol; for pIC50: human platelets, read-out: COX-1 IC50
T1 construct: endogenous in cells; host or cells: human platelets isolated on a discontinuous Percoll gradient
T1 sequence (P23219 24-599): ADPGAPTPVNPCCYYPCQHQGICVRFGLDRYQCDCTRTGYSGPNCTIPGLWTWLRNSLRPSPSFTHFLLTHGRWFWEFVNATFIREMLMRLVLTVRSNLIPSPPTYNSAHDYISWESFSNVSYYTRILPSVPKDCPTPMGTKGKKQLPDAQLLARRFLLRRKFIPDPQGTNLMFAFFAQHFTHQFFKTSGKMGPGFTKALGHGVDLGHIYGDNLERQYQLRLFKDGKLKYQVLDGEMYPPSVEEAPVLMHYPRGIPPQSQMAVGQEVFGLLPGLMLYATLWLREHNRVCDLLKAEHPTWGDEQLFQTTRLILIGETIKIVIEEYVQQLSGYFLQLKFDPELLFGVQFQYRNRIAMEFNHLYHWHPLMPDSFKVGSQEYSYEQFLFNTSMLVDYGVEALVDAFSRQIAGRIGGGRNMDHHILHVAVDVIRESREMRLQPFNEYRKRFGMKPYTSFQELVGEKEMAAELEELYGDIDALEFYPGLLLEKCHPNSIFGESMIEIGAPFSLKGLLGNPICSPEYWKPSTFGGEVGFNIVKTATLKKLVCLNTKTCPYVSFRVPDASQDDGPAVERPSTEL
Experimental: In vitro Test System for Determining the Inhibition of Cyclooxygenase-1
In this test system, the amount of prostaglandin E2 formed from human platelets after addition of calcium ionophore is determined by means of ELISA. In this process, the platelets are obtained after centrifugation on a discontinuous Percoll® gradient. The enzyme reaction and the determination of the metabolites formed is carried out in principle as in the determination of 5-lipoxygenase inhibition. Differences exist with respect to the incubation time. Furthermore, the addition of a thromboxane synthesis inhibitor is necessary (see Arch. Pharm. Pharm. Med. Chem. 330, 307-312 (1997)).

[2] = molecular target: T2, 5-lipoxygenase (Homo sapiens, UniProt P09917); experiment: In vitro test system for determining the inhibition of 5-lipoxygenase (LTB4 from human granulocytes, A 23187, ELISA); assay type: cell-based; conditions: for pIC50: human granulocytes, read-out: 5-LO IC50
T2 construct: Human granulocytes are used as a source of the 5-lipoxygenase; endogenous in cells; host or cells: human granulocytes isolated from heparinised blood on a Percoll gradient
T2 sequence (P09917 1-674): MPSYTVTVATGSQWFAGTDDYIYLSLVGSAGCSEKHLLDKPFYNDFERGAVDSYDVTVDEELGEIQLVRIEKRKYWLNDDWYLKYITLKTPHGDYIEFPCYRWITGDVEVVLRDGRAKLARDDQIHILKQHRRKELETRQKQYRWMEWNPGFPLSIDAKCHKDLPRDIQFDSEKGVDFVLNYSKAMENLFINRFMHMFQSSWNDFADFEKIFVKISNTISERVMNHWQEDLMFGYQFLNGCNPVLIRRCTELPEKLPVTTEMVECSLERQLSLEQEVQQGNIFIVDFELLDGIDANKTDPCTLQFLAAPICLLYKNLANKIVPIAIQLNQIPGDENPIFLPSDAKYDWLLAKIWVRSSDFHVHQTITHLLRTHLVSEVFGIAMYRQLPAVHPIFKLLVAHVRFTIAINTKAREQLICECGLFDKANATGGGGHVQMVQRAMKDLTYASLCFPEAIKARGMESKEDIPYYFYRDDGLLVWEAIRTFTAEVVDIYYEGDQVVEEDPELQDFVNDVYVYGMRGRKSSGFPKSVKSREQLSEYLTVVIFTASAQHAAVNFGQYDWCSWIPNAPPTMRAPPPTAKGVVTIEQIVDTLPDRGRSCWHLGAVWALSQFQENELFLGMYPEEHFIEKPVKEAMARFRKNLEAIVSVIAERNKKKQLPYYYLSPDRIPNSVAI
Experimental: In vitro Test System for Determining the Inhibition of 5-lipoxygenase
Human granulocytes are used as a source of the 5-lipoxygenase. LTB4 (leukotriene B4) is formed from endogenous arachidonic acid by means of stimulation with calcium ionophore A 23187. The granulocytes are isolated and the enzyme reaction is carried out according to known processes (see Arch. Pharm. Pharm. Med. Chem. 330, 307-312 (1997)).
The blood, which is protected from clotting with heparin, is centrifuged on a discontinuous Percoll® gradient and the granulocyte layer is pipetted off. After lysis of the erythrocytes, the granulocytes are washed a number of times and then adjusted to a specific cell count. The enzyme reaction is then started with calcium ionophore A 23187 in the presence or absence of the test substance after addition of Ca2+. The synthesis of the leukotrienes is stopped after 1.5 minutes. The samples are centrifuged off and the supernatant is diluted. LTB4 is determined quantitatively by means of ELISA.

[3] = system: TNFα; experiment: In vitro test procedure using PBMCs, LPS-stimulated, TNFα by ELISA; assay type: cell-based; conditions: Homo sapiens, PBMC; for inhibition at 10 µM / inhibition at 1 µM: 4 h, read-out: TNFα percentage inhibition; for inhibition at 10 µM: at 10 μmol; for inhibition at 1 µM: at 1 μmol
Experimental: (§1) In vitro Test Procedure Using PBMCs
(§2) The mononuclear cells (PBMCs) are isolated from human potassium-EDTA whole blood diluted 1:3 by means of density gradient centrifugation (Histopaque®-1.077). After 2 washing steps with DPBS buffer, the mononuclear cells are resuspended in macrophage-SFM medium and adjusted to a cell count of 1×10^6 cells/ml.
(§3) The PBMCs suspension (at 390 μl) is preincubated with test substance for 15 min at 37° C. in a CO2 incubator (5% CO2; 95% moisture-saturated air). The samples are subsequently stimulated for 4 hours with 1 μg/ml LPS (E.coli 026:B6) at 37° C. in a CO2 incubator (5% CO2, 95% moisture-saturated air). The reaction is ended by placing the samples on ice, addition of DPBS buffer and centrifugation (15880×g; 12 min). The supernatant is used for the quantification of IL-1β and TNFα by means of ELISA.

[4] = system: TNFα; experiment: In vitro test procedure using human whole blood, LPS-stimulated, TNFα by ELISA; assay type: cell-based; conditions: whole-blood method; for pIC50: Homo sapiens
Experimental: (§4) In vitro Test Procedure Using Human Whole Blood
(§5) Human potassium-EDTA whole blood (at 400 μl) is preincubated with test substance for 15 min. at 37° C. in a CO2 incubator (5% CO2; 95% moisture-saturated air). The samples are then stimulated for 4 hours with 1 μg/ml of LPS (E. coli 026:B6) at 37° C. in a CO2 incubator (5% CO2; 95% moisture-saturated air). The reaction is ended by placing the samples on ice, addition of DPBS buffer and subsequent centrifugation (1000×g; 15 min). The plasma supernatant is used for the quantification of IL-1β and TNFα by means of ELISA.

[5] = system: IL-1β; experiment: In vitro test procedure using PBMCs, LPS-stimulated, IL-1β by ELISA; assay type: cell-based; conditions: Homo sapiens, PBMC; for inhibition at 10 µM / inhibition at 1 µM: 4 h, read-out: IL-1β percentage inhibition; for inhibition at 10 µM: at 10 μmol; for inhibition at 1 µM: at 1 μmol
Experimental: as §1, §2, §3

[6] = system: IL-1β; experiment: In vitro test procedure using human whole blood, LPS-stimulated, IL-1β by ELISA; assay type: cell-based; conditions: whole-blood method; for pIC50: Homo sapiens
Experimental: as §4, §5

[7] = molecular target: T3, COX2 (from sheep placenta) (Ovis aries, UniProt P79208); experiment: In vitro test system for determining the inhibition of cyclooxygenase-2 (COX2 from sheep placenta, PGE2 ELISA); assay type: biochemical; conditions: read-out: COX-2 IC50
T3 construct: COX2 (from sheep placenta) is preincubated at 4° C. with test substance for 10 min; from tissue; host or cells: sheep placenta
T3 sequence (P79208 17-603): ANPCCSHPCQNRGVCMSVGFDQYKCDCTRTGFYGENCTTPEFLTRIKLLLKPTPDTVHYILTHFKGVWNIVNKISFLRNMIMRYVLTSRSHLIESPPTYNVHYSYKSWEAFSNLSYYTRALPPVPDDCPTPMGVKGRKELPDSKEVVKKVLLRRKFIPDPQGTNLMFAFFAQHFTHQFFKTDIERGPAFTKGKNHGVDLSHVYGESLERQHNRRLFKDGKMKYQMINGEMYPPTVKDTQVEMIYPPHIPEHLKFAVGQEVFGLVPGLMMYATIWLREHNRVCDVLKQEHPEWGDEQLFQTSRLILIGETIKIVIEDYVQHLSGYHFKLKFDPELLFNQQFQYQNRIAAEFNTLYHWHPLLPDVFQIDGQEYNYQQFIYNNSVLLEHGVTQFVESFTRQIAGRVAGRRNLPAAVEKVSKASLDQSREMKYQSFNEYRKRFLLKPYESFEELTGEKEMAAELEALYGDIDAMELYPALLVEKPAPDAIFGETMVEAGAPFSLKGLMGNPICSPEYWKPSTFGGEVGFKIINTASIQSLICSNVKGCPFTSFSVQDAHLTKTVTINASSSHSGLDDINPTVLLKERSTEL
Experimental: In vitro Test System for Determining the Inhibition of Cyclooxygenase-2
COX2 (from sheep placenta) is preincubated at 4° C. with test substance for 10 min, then stimulated with arachidonic acid (5 μM) at 25° C. for 10 min. […] The determination is carried out at 3 dilutions (10^−7, 10^−6, 10^−5 M). The PGE2 concentrations are quantified by means of ELISA (see Mitchell J. A. et al., Proc. Nat. Acad. Sci. 90: 11693-11697 (1993)).

SMILES | COX-1 percentage inhibition [1] | pIC50 [3] | pIC50 [2] | inhibition at 10 µM [3] [%] | pIC50 [4] | pIC50 [6] | inhibition at 10 µM [5] [%] | also measured
O=C(O)c1c(-c2ccncc2)c(-c2ccc(F)cc2)n2c1SCC2 [Example 11, 5-(4-Fluorophenyl)-6-(4-pyridyl)-2,3-dihydro-pyrrole-[2,1-b]-thiazole-7-carboxylic acid] | 10/33% | 5.17 |  |  |  |  |  | 5-LO percentage inhibition ([2]; at 10 μmol): 10/30%; TNFα percentage inhibition ([4]; at 100 μmol): 45%; pIC50 [5]: 5.64; IL-1β percentage inhibition ([6]; at 100 μmol): 45%
Fc1ccc(-c2c(-c3ccncc3)cc3n2CCS3)cc1 [Example 14, 5-(4-Fluorophenyl)-6-pyridin-4-yl-2,3-dihydro-pyrrolo-[2,1-b]-thiazole] |  | 5.12 | 5.62 |  |  |  |  | pIC50 [1]: 5.64; pIC50 [5]: 5.07
OCc1c(-c2ccncc2)c(-c2ccc(F)cc2)n2c1SCC2 [Example 12, [5-(4-Fluorophenyl)-6-(4-pyridyl)-2,3-dihydro-pyrrolo-[2,1-b]-thiazol-7-yl]methanol] |  |  |  | 44 | 4.35 | 4.12 |  | pIC50 [5]: 5.12
Cc1c(-c2ccncc2)c(-c2ccc(F)cc2)n2c1SCC2 [Example 13, 5-(4-Fluorophenyl)-7-methyl-6-pyridin-4-yl-2,3-dihydropyrrolo-[2,1-b]-thiazole] | 10/45% | 5.09 | 7.40 |  | 4.39 | 4.10 | 43 | 
CCOC(=O)c1c(-c2ccncc2)c(-c2ccc(Cl)s2)n2c1CCC2 [Example 9A, Ethyl 3-(5-chloro-2-thienyl)-2-(4-pyridyl)-6,7-dihydro-5H-pyrrolizine-1-carboxylate] | 10/11% |  | 5.89 | 38 | 4.42 | 4.66 | 47 | 
Cc1c(-c2ccncc2)c(-c2ccc(F)cc2)n2c1CCCC2 [Example 17, 3-(4-Fluorophenyl)-1-methyl-2-(4-pyridyl)-5,6,7,8-tetrahydroindolizine] | 10/48% | 5.40 | 5.66 |  | 4.41 | 4.48 | 67 | inhibition at 1 µM [5]: 0%
CCOC(=O)c1c(-c2ccncc2)c2n(c1-c1ccc(F)cc1)CCC2 [Example 1B, Ethyl 3-(4-fluorophenyl)-1-(4-pyridyl)-6,7-dihydro-5H-pyrrolizine-2-carboxylate] |  | 5.85 | 5.70 | 60 |  |  |  | inhibition at 1 µM [3]: 12%; pIC50 [5]: 5.85
Fc1ccc(-c2cc3n(c2-c2ccncc2)CCC3)cc1 [Example 22, 6-(4-Fluorophenyl)-5-(4-pyridyl)-2,3-dihydro-1H-pyrrolizine] |  |  | 6.17 | 34 |  |  | 59 | pIC50 [1]: 6.64; pIC50 [7]: 5.82
O=C(O)c1c(-c2ccncc2)c(-c2ccc(F)cc2)n2c1CCC2 [Example 2, 3-(4-Fluorophenyl)-2-(4-pyridyl)-6,7-dihydro-5H-pyrrolizine-1-carboxylic acid] |  |  |  | 37 | 4.80 | 5.54 | 17 | 
CCOC(=O)c1c(-c2ccc(F)cc2)c(-c2ccncc2)n2c1CCC2 [Example 19A, Ethyl 2-(4-fluorophenyl)-3-(4-pyridyl)-6,7-dihydro-5H-pyrrolizine-1-carboxylate] |  |  | 5.69 | 60 |  |  | 21 | pIC50 [1]: 5.54; pIC50 [7]: 5.26; inhibition at 1 µM [3]: 0%; inhibition at 1 µM [5]: 0%
CC1(C)COc2c(-c3ccncc3)c(-c3ccc(F)cc3)cn2C1 [Example 24, 7-(4-Fluorophenyl)-3,3-dimethyl-8-pyridin-4-yl-3,4-dihydro-2H-pyrrolo[2,1-b][1,3]-oxazine] |  |  | 5.87 | 42 |  |  | 48 | pIC50 [7]: 5.40
CCOC(=O)c1c(-c2ccncc2)c(-c2ccc(F)cc2)n2c1CCC2 [Example 1A, Ethyl 3-(4-fluorophenyl)-2-(4-pyridyl)-6,7-dihydro-5H-pyrrolizine-1-carboxylate] |  |  |  | 13 | 4.52 | 4.52 | 21 | 
Fc1ccc(-c2c(-c3ccncc3)cc3n2CCC3)cc1 [Example 5, 5-(4-Fluorophenyl)-6-(4-pyridyl)-2,3-dihydro-1H-pyrrolizine] |  | 5.85 | 7.57 | 88 |  |  |  | pIC50 [7]: 5.24; inhibition at 1 µM [3]: 44%
Fc1ccc(-c2c(-c3ccccc3)c3n(c2-c2ccncc2)CCC3)cc1 [Example 25] |  | 4.06 |  |  |  |  |  | 
O=C(O)c1c(-c2ccncc2)c(-c2cccs2)n2c1CCC2 [Example 7, 3-(2-Thienyl)-2-(4-pyridyl)-6,7-dihydro-5H-pyrrolizine-1-carboxylic acid] | 10/40% |  |  |  | 4.32 | 4.28 |  | 
